Where a SMILES comes first, the peptide text is derived from it. [ ]: non-standard residue; d: D form. Oic = O=C(O)[C@@H]1C[C@@H]2CCCC[C@@H]2N1; Tic = O=C(O)[C@@H]1Cc2ccccc2CN1
Key:
[1] = test system: Mycobacterium ranae (ATCC 110); details: ATCC 110
[2] = test system: Staphylococcus aureus Methicillin/Gentamicin/Tetracycline Resistant (ATCC 33592); details: in vitro MIC; tested at 100, 30, 10, 3, 1, 0.3 and 0.1 μM in 1% DMSO

Structure (SMILES)	Minimum Inhibitory Concentration Mycobacterium ranae [1] [µM]	Minimum Inhibitory Concentration Staphylococcus aureus ME/GM/TC resistant [2] [µM]
CC(=O)NCC(=O)N[C@@H](Cc1ccccc1)C(=O)N1Cc2ccccc2C[C@H]1C(=O)N1Cc2ccccc2C[C@H]1C(=O)NCC(=O)N[C@@H](CCCCN)C(=O)N1Cc2ccccc2C[C@H]1C(=O)N1Cc2ccccc2C[C@H]1C(=O)NCC(=O)N[C@@H](Cc1ccccc1)C(=O)N1Cc2ccccc2C[C@H]1C(=O)N1Cc2ccccc2C[C@H]1C(=O)NCC(=O)N[C@@H](CCCCN)C(=O)N1Cc2ccccc2C[C@H]1C(=O)N[C@@H](CCCCN)C(=O)N[C@@H](CCCCN)C(=O)N[C@@H](CCCCN)C(=O)N[C@@H](CCCCN)C(N)=O [FKAB-1Gg2, Ac-GF-Tic-Tic-GK-Tic-Tic-GF-Tic-Tic-GK-Tic-KKKK-CONH2] (Ac-GF[Tic][Tic]GK[Tic][Tic]GF[Tic][Tic]GK[Tic]KKKK-NH2)	10	–
CC(=O)NCC(=O)N[C@@H](Cc1ccccc1)C(=O)N1[C@H](C(=O)N2Cc3ccccc3C[C@H]2C(=O)NCC(=O)N[C@@H](CCCCN)C(=O)N2[C@H](C(=O)N3Cc4ccccc4C[C@H]3C(=O)NCC(=O)N[C@@H](Cc3ccccc3)C(=O)N3[C@H](C(=O)N4Cc5ccccc5C[C@H]4C(=O)NCC(=O)N[C@@H](CCCCN)C(=O)N4Cc5ccccc5C[C@H]4C(=O)N[C@@H](CCCCN)C(=O)N[C@@H](CCCCN)C(=O)N[C@@H](CCCCN)C(=O)N[C@@H](CCCCN)C(N)=O)C[C@@H]4CCCC[C@@H]43)C[C@@H]3CCCC[C@@H]32)C[C@@H]2CCCC[C@@H]21 [FKABB-1G1, Ac-GF-Oic-Tic-GK-Oic-Tic-GF-Oic-Tic-GK-Tic-KKKK-CONH2] (Ac-GF[Oic][Tic]GK[Oic][Tic]GF[Oic][Tic]GK[Tic]KKKK-NH2)	30	–
CC(=O)NCC(=O)N[C@H](Cc1ccccc1)C(=O)N1Cc2ccccc2C[C@H]1C(=O)N1[C@H](C(=O)NCC(=O)N[C@@H](CCCCN)C(=O)N2Cc3ccccc3C[C@H]2C(=O)N2[C@H](C(=O)NCC(=O)N[C@H](Cc3ccccc3)C(=O)N3Cc4ccccc4C[C@H]3C(=O)N3[C@H](C(=O)NCC(=O)N[C@@H](CCCCN)C(=O)N4Cc5ccccc5C[C@H]4C(=O)N[C@@H](CCCCN)C(=O)N[C@@H](CCCCN)C(=O)N[C@@H](CCCCN)C(=O)N[C@@H](CCCCN)C(N)=O)C[C@@H]4CCCC[C@@H]43)C[C@@H]3CCCC[C@@H]32)C[C@@H]2CCCC[C@@H]21 [FKAB-1G2, Ac-G-dF-Tic-Oic-GK-Tic-Oic-G dF-Tic-Oic-GK-Tic-KKKK-CONH2] (Ac-G[dF][Tic][Oic]GK[Tic][Oic]G[dF][Tic][Oic]GK[Tic]KKKK-NH2)	10	–
CC[C@H](C)[C@H](NC(=O)CN)C(=O)NCC(=O)N[C@@H](CCCCN)C(=O)N[C@@H](Cc1ccccc1)C(=O)N[C@@H](CC(C)C)C(=O)N[C@@H](Cc1c[nH]cn1)C(=O)N[C@@H](CO)C(=O)N[C@@H](C)C(=O)NCC(=O)N[C@@H](CCCCN)C(=O)N[C@@H](Cc1ccccc1)C(=O)NCC(=O)N[C@@H](CCCCN)C(=O)N[C@@H](C)C(=O)N[C@@H](Cc1ccccc1)C(=O)N[C@H](C(=O)NCC(=O)N[C@@H](CCC(=O)O)C(=O)N[C@H](C(=O)N[C@@H](CCSC)C(=O)N[C@@H](CCCCN)C(=O)N[C@@H](CO)C(=O)O)[C@@H](C)CC)C(C)C [Magainin I, magainin I, reference compound] (H-GIGKFLHSAGKFGKAFVGEIMKS-OH; N-terminus and C-terminus assumed)	–	> 100

From patent US20120197004A1, “NOVEL ANTI-MICROBIAL PEPTIDOMIMETIC COMPOUNDS AND METHODS TO CALCULATE ANTI-MICROBIAL ACTIVITY” (priority 2006, published 2012)
